Experimental data published in PMC11695631 (Nature Communications, 2025).

Target: Vesicular monoamine transporter 2 (VMAT2) (Homo sapiens, UniProt Q05940)
Test: cryo-EM structure at […] Å
Type: cell-based

Sequence of Vesicular monoamine transporter 2 (VMAT2) (Q05940 12-514): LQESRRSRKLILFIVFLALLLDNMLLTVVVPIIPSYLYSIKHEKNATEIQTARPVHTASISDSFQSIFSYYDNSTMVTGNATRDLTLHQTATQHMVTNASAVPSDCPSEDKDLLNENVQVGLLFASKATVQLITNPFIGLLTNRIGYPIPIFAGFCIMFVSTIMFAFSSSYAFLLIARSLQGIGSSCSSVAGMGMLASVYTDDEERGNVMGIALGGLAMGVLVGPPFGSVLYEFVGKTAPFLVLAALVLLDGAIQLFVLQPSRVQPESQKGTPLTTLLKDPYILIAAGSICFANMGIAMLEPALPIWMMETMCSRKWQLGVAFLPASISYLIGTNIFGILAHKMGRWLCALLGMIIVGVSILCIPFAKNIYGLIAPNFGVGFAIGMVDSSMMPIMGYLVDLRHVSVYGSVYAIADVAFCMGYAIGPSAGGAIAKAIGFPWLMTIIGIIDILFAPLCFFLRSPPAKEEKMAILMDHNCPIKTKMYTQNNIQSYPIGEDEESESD

## COc1cc2c(cc1OC)C1CC(=O)C(CC(C)C)CN1CC2 (stereo not shown) [TBZ, tetrabenazine]
  IC50: 0.0204 ± 0.0041 µM
